Assay results taken from US6054429A (priority 1996, dated 2000).
Bridge positions count the residues as written; N and C are the ends. Square brackets hold non-standard residues; d marks the D form. Peptide text beside a SMILES is read from it. Hyp = O=C(O)[C@@H]1C[C@@H](O)CN1

Target: calcium channels in N1E115 mouse neuroblastoma cells (Mus musculus, UniProt O55017)
Format: cell-based

calcium channels in N1E115 mouse neuroblastoma cells, sequence (O55017 whole entry): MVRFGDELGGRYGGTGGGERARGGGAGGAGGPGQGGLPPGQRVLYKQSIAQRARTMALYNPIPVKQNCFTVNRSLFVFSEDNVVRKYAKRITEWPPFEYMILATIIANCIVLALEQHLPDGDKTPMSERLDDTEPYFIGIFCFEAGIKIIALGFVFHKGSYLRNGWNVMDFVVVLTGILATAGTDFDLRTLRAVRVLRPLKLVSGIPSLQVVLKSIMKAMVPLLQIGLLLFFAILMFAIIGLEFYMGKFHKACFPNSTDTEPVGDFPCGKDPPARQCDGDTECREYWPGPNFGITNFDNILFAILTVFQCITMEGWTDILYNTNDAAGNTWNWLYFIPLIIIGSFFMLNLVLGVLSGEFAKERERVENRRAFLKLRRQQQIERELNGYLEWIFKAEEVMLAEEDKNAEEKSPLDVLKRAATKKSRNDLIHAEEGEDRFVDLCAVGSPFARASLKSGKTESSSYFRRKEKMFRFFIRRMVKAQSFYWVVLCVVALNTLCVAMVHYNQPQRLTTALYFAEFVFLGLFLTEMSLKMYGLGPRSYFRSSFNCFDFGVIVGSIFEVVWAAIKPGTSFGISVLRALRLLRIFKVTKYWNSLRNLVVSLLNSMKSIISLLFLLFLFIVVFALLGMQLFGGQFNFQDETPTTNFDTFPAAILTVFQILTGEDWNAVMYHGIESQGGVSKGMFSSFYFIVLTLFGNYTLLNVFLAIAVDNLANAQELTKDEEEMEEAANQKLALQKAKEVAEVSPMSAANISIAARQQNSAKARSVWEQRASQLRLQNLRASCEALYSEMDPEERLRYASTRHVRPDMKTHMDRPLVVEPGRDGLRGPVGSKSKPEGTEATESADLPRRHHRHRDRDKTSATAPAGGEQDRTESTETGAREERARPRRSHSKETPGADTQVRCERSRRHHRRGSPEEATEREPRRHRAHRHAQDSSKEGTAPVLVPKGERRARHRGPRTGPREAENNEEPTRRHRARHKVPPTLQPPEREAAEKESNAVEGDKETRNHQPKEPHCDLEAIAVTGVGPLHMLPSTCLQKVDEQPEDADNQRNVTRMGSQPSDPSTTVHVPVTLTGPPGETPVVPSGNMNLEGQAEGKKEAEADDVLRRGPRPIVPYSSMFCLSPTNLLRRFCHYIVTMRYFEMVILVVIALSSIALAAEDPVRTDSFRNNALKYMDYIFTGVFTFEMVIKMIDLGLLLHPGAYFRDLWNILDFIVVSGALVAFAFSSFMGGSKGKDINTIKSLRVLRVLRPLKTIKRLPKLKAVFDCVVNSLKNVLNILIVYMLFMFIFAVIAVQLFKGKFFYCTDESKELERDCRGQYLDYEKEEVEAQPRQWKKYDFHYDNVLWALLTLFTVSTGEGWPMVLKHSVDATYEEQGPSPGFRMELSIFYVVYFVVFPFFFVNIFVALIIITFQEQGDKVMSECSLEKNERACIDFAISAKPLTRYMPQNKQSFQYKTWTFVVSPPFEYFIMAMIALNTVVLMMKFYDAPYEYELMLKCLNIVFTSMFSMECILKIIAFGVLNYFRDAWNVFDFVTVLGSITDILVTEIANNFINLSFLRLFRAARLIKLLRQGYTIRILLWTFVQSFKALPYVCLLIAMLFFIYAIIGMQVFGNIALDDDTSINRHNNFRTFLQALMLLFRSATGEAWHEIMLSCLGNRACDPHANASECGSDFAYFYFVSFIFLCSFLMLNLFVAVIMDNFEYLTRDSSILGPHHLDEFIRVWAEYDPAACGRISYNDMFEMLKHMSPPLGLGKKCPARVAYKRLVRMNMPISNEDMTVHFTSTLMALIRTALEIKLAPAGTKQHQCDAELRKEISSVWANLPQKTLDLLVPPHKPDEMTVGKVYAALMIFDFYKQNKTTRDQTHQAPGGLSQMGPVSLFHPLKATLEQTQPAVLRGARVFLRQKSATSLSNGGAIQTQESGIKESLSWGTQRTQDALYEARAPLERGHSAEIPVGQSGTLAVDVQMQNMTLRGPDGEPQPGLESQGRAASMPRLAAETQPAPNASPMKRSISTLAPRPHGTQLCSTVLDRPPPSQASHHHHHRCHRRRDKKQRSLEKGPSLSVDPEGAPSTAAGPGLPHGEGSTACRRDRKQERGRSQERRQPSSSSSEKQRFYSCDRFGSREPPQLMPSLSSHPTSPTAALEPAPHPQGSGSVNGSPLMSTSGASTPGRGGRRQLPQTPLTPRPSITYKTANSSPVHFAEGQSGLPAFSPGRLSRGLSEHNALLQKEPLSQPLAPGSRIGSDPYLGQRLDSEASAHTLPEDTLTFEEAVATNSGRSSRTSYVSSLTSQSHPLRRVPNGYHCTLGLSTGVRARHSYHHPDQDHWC
calcium channels in N1E115 mouse neuroblastoma cells, sequence (P54285 whole entry partner): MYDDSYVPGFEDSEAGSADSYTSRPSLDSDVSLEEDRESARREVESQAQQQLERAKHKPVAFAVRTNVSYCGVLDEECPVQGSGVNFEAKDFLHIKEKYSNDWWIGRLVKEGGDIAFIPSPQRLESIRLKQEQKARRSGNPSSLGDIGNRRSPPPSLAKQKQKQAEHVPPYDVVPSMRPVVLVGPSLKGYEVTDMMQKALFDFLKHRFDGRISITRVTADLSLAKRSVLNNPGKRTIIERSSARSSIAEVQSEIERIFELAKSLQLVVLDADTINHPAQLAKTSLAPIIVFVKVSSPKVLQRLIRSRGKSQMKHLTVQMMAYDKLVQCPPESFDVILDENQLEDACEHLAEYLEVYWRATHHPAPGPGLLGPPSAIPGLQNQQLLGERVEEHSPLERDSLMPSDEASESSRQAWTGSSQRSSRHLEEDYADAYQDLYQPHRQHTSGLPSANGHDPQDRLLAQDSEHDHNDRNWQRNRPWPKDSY
calcium channels in N1E115 mouse neuroblastoma cells, sequence (O08532 25-956 partner limits assumed): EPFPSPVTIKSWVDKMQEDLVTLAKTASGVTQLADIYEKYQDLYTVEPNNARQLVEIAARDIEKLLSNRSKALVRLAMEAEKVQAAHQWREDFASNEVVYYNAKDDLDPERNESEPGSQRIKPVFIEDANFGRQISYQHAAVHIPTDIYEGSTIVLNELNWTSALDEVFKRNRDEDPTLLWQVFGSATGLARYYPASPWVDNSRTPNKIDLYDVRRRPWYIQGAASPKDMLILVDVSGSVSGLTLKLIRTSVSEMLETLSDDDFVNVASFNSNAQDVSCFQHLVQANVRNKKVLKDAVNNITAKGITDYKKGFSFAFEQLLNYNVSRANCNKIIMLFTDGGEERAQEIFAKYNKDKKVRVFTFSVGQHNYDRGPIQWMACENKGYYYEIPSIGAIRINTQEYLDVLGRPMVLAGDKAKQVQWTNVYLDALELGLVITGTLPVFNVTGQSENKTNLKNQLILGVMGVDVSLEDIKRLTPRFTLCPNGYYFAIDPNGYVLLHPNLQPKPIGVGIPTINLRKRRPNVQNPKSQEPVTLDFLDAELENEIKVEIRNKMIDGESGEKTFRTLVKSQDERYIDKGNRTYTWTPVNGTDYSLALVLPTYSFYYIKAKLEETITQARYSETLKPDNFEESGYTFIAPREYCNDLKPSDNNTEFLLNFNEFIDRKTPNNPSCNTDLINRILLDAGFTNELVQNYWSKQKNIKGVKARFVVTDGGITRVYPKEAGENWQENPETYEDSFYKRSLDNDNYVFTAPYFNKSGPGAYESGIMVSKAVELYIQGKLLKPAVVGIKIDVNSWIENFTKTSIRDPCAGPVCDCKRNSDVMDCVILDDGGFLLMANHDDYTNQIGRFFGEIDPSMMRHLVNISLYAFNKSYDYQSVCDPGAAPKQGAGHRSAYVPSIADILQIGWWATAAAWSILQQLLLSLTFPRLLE
calcium channels in N1E115 mouse neuroblastoma cells, sequence (O08532 957-1103 partner limits assumed): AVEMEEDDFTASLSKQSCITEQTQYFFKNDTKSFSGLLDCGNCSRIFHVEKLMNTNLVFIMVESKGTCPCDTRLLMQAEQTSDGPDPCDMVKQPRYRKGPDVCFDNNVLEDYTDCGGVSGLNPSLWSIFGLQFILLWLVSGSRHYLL

`CC[C@H](C)[C@@H]1NC(=O)[C@H](CO)NC(=O)[C@H]([C@@H](C)O)NC(=O)[C@H](C(C)C)NC(=O)CNC(=O)[C@@H]2CSSC[C@@H]3NC(=O)[C@H](CCCNC(=N)N)NC(=O)CNC(=O)[C@H](CSSC[C@H](N)C(=O)N[C@@H](CCCNC(=N)N)C(=O)N[C@@H](CO)C(=O)N[C@@H](CO)C(=O)NCC(=O)N[C@@H](CO)C(=O)N4C[C@H](O)C[C@H]4C(=O)N2)NC(=O)[C@H](CSSC[C@@H](C(=O)N[C@H](C(N)=O)[C@@H](C)O)NC(=O)[C@H](CCCCN)NC(=O)CNC(=O)[C@H](CCCNC(=N)N)NC(=O)[C@H](Cc2ccc(O)cc2)NC3=O)NC1=O` [SNX-157] (H-CRSSGS[Hyp]CGVTSICCGRCYRGKCT-NH2; disulfide 1-15, 8-18, 14-23) was tested. Which “IC50 for calcium current (in words)” value did it give?
The value was “not measurable within the range of concentrations tested”.
